# Source: US4066762A, “Derivatives of 7-(2-substituted-2-hydroxyiminoacetamido)-3-(1-substituted tetrazol-5-yl thiomethyl-3-cephem-4-carboxylic acid” (SmithKline Corporation, priority 1976, dated 1978)
# Counter-ions that a name gives are not always drawn. Like-named read-outs stand apart in the source and are kept apart here.
# Columns and labels:
# [1] = tested on: S. Aureus HH 127; test: MIC in vitro, S. Aureus HH 127 (G+); assay type: cell-based; conditions: Staphylococcus aureus
# Description: (§1) Table 1 contains minimum inhibitory concentrations in μg./ml. of a number of representative compounds compared with standard agents.
# [2] = tested on: S. Aureus SK 23390; test: MIC in vitro, S. Aureus SK 23390 (G+); assay type: cell-based; conditions: Staphylococcus aureus
# Description: as §1
# [3] = tested on: S. villaluz SK 70390; test: MIC in vitro, S. villaluz SK 70390 (G+); assay type: cell-based; conditions: read-out: MIC in vitro
# Description: as §1
# [4] = tested on: Strep. Faecalis HH 34358; test: MIC in vitro, Strep. Faecalis HH 34358 (G+); assay type: cell-based; conditions: Enterococcus faecalis
# Description: as §1
# [5] = tested on: E. coli SK 12140; test: MIC in vitro, E. coli SK 12140 (G-); assay type: cell-based; conditions: Escherichia coli, SK12140
# Description: as §1
# [6] = tested on: E. coli HH 33779; test: MIC in vitro, E. coli HH 33779 (G-); assay type: cell-based; conditions: Escherichia coli, HH33779
# Description: as §1
# [7] = tested on: Kleb. pneumoniae SK 4200; test: MIC in vitro, Kleb. pneumoniae SK 4200 (G-); assay type: cell-based; conditions: Klebsiella pneumoniae, SK4200
# Description: as §1
# [8] = tested on: Kleb. pneumoniae SK 1200; test: MIC in vitro, Kleb. pneumoniae SK 1200 (G-); assay type: cell-based; conditions: Klebsiella pneumoniae, SK1200
# Description: as §1
# [9] = tested on: Salmonella ATCC 12176; test: MIC in vitro, Salmonella ATCC 12176 (G-); assay type: cell-based; conditions: Salmonella, ATCC12176, Salmonella ATCC 12176, G-
# Description: as §1
# [10] = tested on: Pseudo Aeruginosa HH 63; test: MIC in vitro, Pseudo Aeruginosa HH 63 (G-); assay type: cell-based
# Description: as §1
# [11] = tested on: Serratia Marcescens ATCC 13880; test: MIC in vitro, Serratia Marcescens ATCC 13880 (G-); assay type: cell-based; conditions: ATCC13880; Serratia Marcescens ATCC 13880, G-; read-out: MIC in vitro
# Description: as §1
# [12] = tested on: Proteus morgani 179; test: MIC in vitro, Proteus morgani 179 (G-); assay type: cell-based
# Description: as §1
# [13] = tested on: Entero. aerogenes ATCC 13048; test: MIC in vitro, Entero. aerogenes ATCC 13048 (G-); assay type: cell-based; conditions: Klebsiella aerogenes
# Description: as §1
# [14] = tested on: Entero. cloacae HH 31254; test: MIC in vitro, Entero. cloacae HH 31254 (G-); assay type: cell-based; conditions: Enterobacter cloacae, HH31254
# Description: as §1
# [15] = tested on: Kleb. pneumo. 4200; test: standard in vivo mouse protection test, Kleb. pneumo. 4200; conditions: sc
# Description: (§2) C is 7β-(syn-2-hydroxyimino-2-phenylacetamido)-3-(1-sulfomethyltetrazol-5-ylthiomethyl)-3-cephem-4-carboxylic acid disodium salt. […] 4200; 25 mg./kg. against E. coli 12140; Compound B 45 mg./kg. against Kleb. and 43, >50 against E. coli.
# [16] = tested on: E. coli 12140; test: standard in vivo mouse protection test, E. coli 12140; conditions: s.c.
# Description: as §2
# [17] = tested on: P. Mirabils PM 444; test: MIC in vitro, P. Mirabils PM 444 (G-); assay type: cell-based; conditions: P. Mirabils PM 444, G-; read-out: MIC in vitro
# Description: as §1
# [18] = Escherichia coli, 12140, sc, read-out: ED50
# [19] = ATCC13048, Entero. aerogenes ATCC 13048, G-, read-out: MIC in vitro
smiles,measurement,setting,value
"CO/N=C(\C(=O)N[C@@H]1C(=O)N2C(C(=O)O)=C(CSc3nnnn3CS(=O)(=O)O)CS[C@H]12)c1ccccc1 [Compound B, 7β-(syn-2-methoxyimino-2-phenylacetamido)-3-(1-sulfomethyltetrazol-5-ylthiomethyl)-3-cephem-4-carboxylic acid disodium salt]",MIC,[1],1.6 µg/mL
same,MIC,[2],1.6 µg/mL
same,MIC,[3],> 200 µg/mL
same,MIC,[4],25 µg/mL
same,MIC,[5],6.3 µg/mL
same,MIC,[6],6.3 µg/mL
same,MIC,[7],3.1 µg/mL
same,MIC,[8],3.1 µg/mL
same,MIC,[9],1.6 µg/mL
same,MIC,[10],200 µg/mL
same,MIC,[11],12.5 µg/mL
same,MIC,[12],6.3 µg/mL
same,MIC,"[13]; ATCC13048, read-out: MIC in vitro",12.5 µg/mL
same,MIC,[14],3.1 µg/mL
same,ED50,[15],45 mg/kg
same,ED50,[16]; [18],43 mg/kg
same,ED50,[16]; disodium salt,> 50 mg/kg
"O=C(O)C1=C(CSc2nnnn2CS(=O)(=O)O)CS[C@@H]2[C@H](NC(=O)/C(=N\O)c3ccccc3)C(=O)N12 [Compound C, 7β-(syn-2-hydroxyimino-2-phenylacetamido)-3-(1-sulfomethyltetrazol-5-ylthiomethyl)-3-cephem-4-carboxylic acid disodium salt]",MIC,[1],0.8 µg/mL
same,MIC,[2],0.8 µg/mL
same,MIC,"[3]; S. villaluz SK 70390, G+",100 µg/mL
same,MIC,[4],6.3 µg/mL
same,MIC,[5],1.6 µg/mL
same,MIC,[6],3.1 µg/mL
same,MIC,[7],1.6 µg/mL
same,MIC,[8],0.8 µg/mL
same,MIC,[9],0.8 µg/mL
same,MIC,[10],> 200 µg/mL
same,MIC,[11],12.5 µg/mL
same,MIC,[12],25 µg/mL
same,MIC,[13]; [19],6.3 µg/mL
same,MIC,[14],1.6 µg/mL
same,ED50,[15],4.4 mg/kg
same,ED50,[16]; [18],25 mg/kg
"CO/N=C(\C(=O)N[C@@H]1C(=O)N2C(C(=O)O)=C(COC(N)=O)CS[C@H]12)c1ccco1 [Cefuroxime, reference compound]",MIC,[1],0.8 µg/mL
same,MIC,[2],1.6 µg/mL
same,MIC,"[3]; S. villaluz SK 70390, G+",> 200 µg/mL
same,MIC,[4],12.5 µg/mL
same,MIC,[5],6.3 µg/mL
same,MIC,[6],6.3 µg/mL
same,MIC,[7],6.3 µg/mL
same,MIC,[8],3.1 µg/mL
same,MIC,[9],3.1 µg/mL
same,MIC,[10],> 200 µg/mL
same,MIC,[11],12.5 µg/mL
same,MIC,[12],50 µg/mL
same,MIC,[13]; [19],6.3 µg/mL
same,MIC,[14],3.1 µg/mL
same,MIC,[17],1.6 µg/mL
